Values of other authors as cited in US10413588B2, “Probiotic function of human intelectin” (Wisconsin Alumni Research Foundation, priority 2015, dated 2019).

Target: hIntL-1 (Homo sapiens, UniProt Q8WWA0)
Conditions: reported by Tsuji et al., 2001; read-out: apparent KD / apparent affinity for hIntL-1

hIntL-1, sequence (Q8WWA0 19-298): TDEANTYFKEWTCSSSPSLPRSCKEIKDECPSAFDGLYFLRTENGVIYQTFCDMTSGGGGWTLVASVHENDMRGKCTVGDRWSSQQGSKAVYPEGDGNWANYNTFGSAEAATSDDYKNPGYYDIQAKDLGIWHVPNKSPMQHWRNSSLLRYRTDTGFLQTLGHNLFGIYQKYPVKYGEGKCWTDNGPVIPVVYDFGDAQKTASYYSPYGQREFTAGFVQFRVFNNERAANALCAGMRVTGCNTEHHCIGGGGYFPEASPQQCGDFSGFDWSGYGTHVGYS

Kd: 5 mM
SMILES: O=C[C@H](O)[C@H](O)[C@H](O)CO [D-ribose]
